# Experimental data taken from patent EP4563149A1, “LURBINECTEDIN, ECUBECTEDIN AND A RELATED COMPOUND FOR USE IN THE TREATMENT OF SKIN CANCERS” (Pharma Mar, S.A., priority 2023, dated 2025).
# Read-outs that look alike come from different tables or passages of the source.
# Assays:
# [1] = test system: xenografts with various melanoma cell lines; details: different xenografts, 1.2 mg/kg intravenous once per week for 3 weeks
# Method: (§1) Female athymic nu/nu mice (Harlan Laboratories Models, S.L. Barcelona, Spain or Envigo, Spain) were utilized for all experiments. Animal were housed in individually ventilated cages Sealsafe® Plus, Techmplast S.P.A.), up to ten per cage on a 12-hour light-dark cycle at 21-23 °C and 40-60 % humidity. Mice were allowed free access to irradiated standard rodent diet (Tecklad 2914C) and sterilized water. Animals were acclimated for at least 5 days prior to tumor implantation with a tumor cell suspension.
# (§2) The cell line used are: • 501mel • IGR-37 • SK-Mel-28 • WM-266-4 • LOX-IMVI • 501mel^Vemur
# In xenograft studies with cell lines: • Tumour volume was calculated using the equation […], where a: length (longest diameter) and b: width (shortest diameter) were measured in mm by using digital caliper (Fowler Sylvac, S235PAT). Tumour dimensions and body weights were recorded 2-3 times per week starting from the first day of treatment. • When tumors reached ca. 150-250 mm^3, tumour bearing animals (N = 8-10/group) were randomly allocated into the treatment groups, based on body weight and tumour measurements by using NewLab Oncology Software (version 2.25.06.00). • Comparison between median tumour volume of treated and placebo groups was used for evaluation of the antitumoural efficacy. • Animals were euthanized when their tumours reached ca. 1,500 mm^3 and/or severe necrosis was seen. […]
# [2] = test system: IGR37; test: Cell viability assay (PrestoBlue), 72h, last line of Table 2; details: Homo sapiens, IGR-37, 72 h
# Method: (§7) Cells were grown at 37°C in 5% CO2 (10% for Hermes 3A) and were regularly checked for mycoplasma contamination. […] Melanoma IGR cell lines (IGR37 and IGR39) were grown in RPMI w/o HEPES (Gibco, Invitrogen) supplemented with 15% FCS and gentamycin.
# (§8) To determine the IC50 (half maximal inhibitory concentration) of these cells to various inhibitors, cell viability assays were performed.
# (§9) After 72h of treatment with different concentrations of the compounds, cells were treated with PrestoBlue reagent according to the manufacturer's instructions. The absorbance per well was measured with a Cellinsight CX5 microplate reader. Data were analyzed using Prism9 statistical software.
# [3] = test system: Hermes3A; test: Cell viability assay (PrestoBlue), 72h
# Method: as §7, §8, §9
# [4] = test system: 501mel, 501mel^VemuR and SKMEL28-derived xenografts; details: 24h after single IV dose of 1.2 mg/kg
# Source text: (§3) To investigate the effects of the aforementioned tested drugs in living organisms, it was decided to examine the impact of PM14 and Compound IA on melanoma cell-derived xenograft (CDXs) mouse models. Human 501mel, 501mel^VemuR or SKMEL28 melanoma cells were subcutaneously implanted into the right flank of NSG mice.
# [5] = test system: 501mel^VemuR; test: Cell viability assay (PrestoBlue), 72h; details: Homo sapiens
# Method: Cells were grown at 37°C in 5% CO2 (10% for Hermes 3A) and were regularly checked for mycoplasma contamination. MM patient-derived short-term melanoma cultures (MM011, MM074, MM117, MM029, MM047, MM099) were grown in HAM-F10 (Gibco, Invitrogen) supplemented with 10% Fetal Calf Serum (FCS), 25 mM HEPES, 5.2 mM GLUTAMAX and penicillin-streptomycin. Melanoma cell lines 501mel and SKmel28 were grown in RPMI w/o HEPES (Gibco, Invitrogen) supplemented with 10% FCS and gentamycin. Vemurafenib-resistant cells (501melVemuR and MM074VemuR) were additionally supplemented with 1.5 µM of vemurafenib. Melanoma IGR cell lines (IGR37 and IGR39) were grown in RPMI w/o HEPES (Gibco, Invitrogen) supplemented with 15% FCS and gentamycin.
# as §8, §9
# [6] = test system: 501mel, 501mel^VemuR or SKMEL28 melanoma cells; details: weekly IV 1.2mg/kg
# Method: as §3
# Tumor volumes were monitored following weekly IV treatments of PM14 or Comp IA at a concentration of 1.2mg/kg. Treatments commenced (Day 0) when the tumors reached 150 mm^3 in female NSG mice aged 4 to 6 weeks (N=8/group).
# [7] = test system: all melanoma cells; test: Cell viability assay (PrestoBlue), summary over all melanoma cells; type: cell-based; details: Homo sapiens, read-out: IC50 values
# [8] = test system: RPB1 (RNA pol II elongation subunit); test: Immunoblotting of RPB1 in 501mel; type: cell-based, human; details: 24h at 5×IC50
# Method: Cells were washed once with cold PBS, rinsed with a cell scraper, pelleted and resuspended in LSDB 0.5M buffer (0.5M KCI, 50mM Tris HCl pH 7.9, 20% Glycerol, 1% NP40, 1mM DTT, PIC). Afterwards cells were fully disrupted with 3 cycles of heat shock in liquid nitrogen and 37°C water bath and centrifugated 15min at 14,000rpm to pellet cell debris. Ten micrograms of extract were loaded on SDS-PAGE before transfer to nitro-cellulose membranes and immunoblotting.
# [9] = test system: SKMEL-28; test: Cell viability assay (PrestoBlue), 72h; details: Homo sapiens, SK-MEL-28, 72 h
# Method: (§10) Cells were grown at 37°C in 5% CO2 (10% for Hermes 3A) and were regularly checked for mycoplasma contamination. […] Melanoma cell lines 501mel and SKmel28 were grown in RPMI w/o HEPES (Gibco, Invitrogen) supplemented with 10% FCS and gentamycin. Vemurafenib-resistant cells (501melVemuR and MM074VemuR) were additionally supplemented with 1.5 µM of vemurafenib. Melanoma IGR cell lines (IGR37 and IGR39) were grown in RPMI w/o HEPES (Gibco, Invitrogen) supplemented with 15% FCS and gentamycin.
# as §8, §9
# [10] = test system: MM029; test: Cell viability assay (PrestoBlue), 72h; details: Homo sapiens
# Method: as §7, §8, §9
# [11] = test system: 501 mel^Vemur cell line; details: 1.2 mg/kg intravenous
# Method: as §1, §2
# (§4) In xenograft studies with cell lines: • Tumour volume was calculated using the equation […], where a: length (longest diameter) and b: width (shortest diameter) were measured in mm by using digital caliper (Fowler Sylvac, S235PAT). Tumour dimensions and body weights were recorded 2-3 times per week starting from the first day of treatment. • When tumors reached ca. 150-250 mm^3, tumour bearing animals (N = 8-10/group) were randomly allocated into the treatment groups, based on body weight and tumour measurements by using NewLab Oncology Software (version 2.25.06.00). • Comparison between median tumour volume of treated and placebo groups was used for evaluation of the antitumoural efficacy. • Animals were euthanized when their tumours reached ca. 1,500 mm^3 and/or severe necrosis was seen.
# (§5) Treatments producing >20 % lethality and/or 20% net body weight loss were considered toxic.
# (§6) In these experiments, PM14 and Compound IA, as well as placebo, were intravenously administered once per week for 3 consecutive weeks, on days 0, 7 and 14, whenever it was possible.
# [12] = test system: WM-266-4 melanoma xenografts; details: 1.2 mg/kg intravenous
# Method: as §1, §2, §4, §5, §6
# Table 7. Tumour volume evaluation in WM-266-4 melanoma xenografts with PM14 and Compound IA and placebo.
# [13] = test system: IGR37; test: Cell viability assay (PrestoBlue), 72h; details: Homo sapiens, IGR-37, 72 h
# Method: as §10, §8, §9
# [14] = test system: LOX-IMVI melanoma xenografts; details: 1.2 mg/kg intravenous
# Method: as §1, §2, §4, §5, §6
# Tumour volume evaluation in LOX-IMVI melanoma xenografts with PM14 and Compound IA and placebo.
structure (smiles),measurement,setting,value
"COc1c(C)cc2c(c1O)[C@@H]1[C@@H]3[C@@H]4SC[C@]5(N[C@H](CO)Cc6c5[nH]c5ccccc65)C(=O)OC[C@@H](c5c6c(c(C)c(OC(C)=O)c54)OCO6)N3[C@@H](O)[C@H](C2)N1C [PM14, ecubectedin]",tumor volume compared to the placebo,[1],reduction of the volume tumor
same,IC50,[2],0.78 nM
same,sensitivity of non-cancerous Hermes3A immortalized melanocytes compared with the melanoma cells,[3]; Hermes3A versus melanoma cells,less sensitive
same,IC50,"[3]; Homo sapiens, Melanocyte, 72 h",2.89 nM
same,fraction of apoptotic cells (cleaved caspase-3),[4],significant increase
same,IC50,[5],1.04 nM
same,antitumor activity (tumor volumes) versus placebo-treated group,[6]; N=8/group,statistically significant difference
same,overall survival,[6]; three CDX models,significant increase
same,IC50,[7],0.3 to 4.73 nM
same,RPB1 (RNA pol II elongation subunit) degradation,[8],pronounced
same,IC50,[9],1.31 nM
same,IC50,[10],1.4 nM
same,Median Tumour Volume,"[11]; days 0, 7 and 14, day 0",147.9 mm^3
same,Median Tumour Volume,"[11]; days 0, 7 and 14, day 2",225.2 mm^3
same,Median Tumour Volume,"[11]; days 0, 7 and 14, day 4",248.4 mm^3
same,Median Tumour Volume,"[11]; days 0, 7 and 14, day 7",330.4 mm^3
same,Median Tumour Volume,"[11]; days 0, 7 and 14, day 9",361 mm^3
same,Median Tumour Volume,"[11]; days 0, 7 and 14, day 11",389.7 mm^3
same,Median Tumour Volume,"[11]; days 0, 7 and 14, day 14",407.1 mm^3
same,Median Tumour Volume,"[11]; days 0, 7 and 14, day 16",436.4 mm^3
same,Median Tumour Volume,"[11]; days 0, 7 and 14, day 18",502 mm^3
same,Median Tumour Volume,"[11]; days 0, 7 and 14, day 21",555.5 mm^3
same,Median Tumour Volume,"[11]; days 0, 7 and 14, day 23",674.2 mm^3
same,Median Tumour Volume,"[11]; days 0, 7 and 14, day 25",757.7 mm^3
same,Median Tumour Volume,"[11]; days 0, 7 and 14, day 28",839.8 mm^3
same,Median Tumour Volume,"[11]; days 0, 7 and 14, day 30",882.9 mm^3
same,Median Tumour Volume,"[11]; days 0, 7 and 14, day 35",863.3 mm^3
same,Median Tumour Volume,"[11]; days 0, 7 and 14, day 37",871.8 mm^3
same,Median Tumour Volume,"[11]; days 0, 7 and 14, day 39",948.6 mm^3
same,Median Tumour Volume,"[11]; days 0, 7 and 14, day 42",1020 mm^3
same,Median Tumour Volume,"[11]; days 0, 7 and 14, day 44","1,295.1 mm^3"
same,Median Tumour Volume,"[11]; days 0, 7 and 14, day 46","1,582.2 mm^3"
same,Median Tumour Volume,"[12]; days 0, 7 and 14, day 0",169.5 mm^3
same,Median Tumour Volume,"[12]; days 0, 7 and 14, day 3",115.1 mm^3
same,Median Tumour Volume,"[12]; days 0, 7 and 14, day 5",118.2 mm^3
same,Median Tumour Volume,"[12]; days 0, 7 and 14, day 7",136.6 mm^3
same,Median Tumour Volume,"[12]; days 0, 7 and 14, day 10",133.1 mm^3
same,Median Tumour Volume,"[12]; days 0, 7 and 14, day 12",109.8 mm^3
same,Median Tumour Volume,"[12]; days 0, 7 and 14, day 14",138.4 mm^3
same,Median Tumour Volume,"[12]; days 0, 7 and 14, day 17",129.6 mm^3
same,Median Tumour Volume,"[12]; days 0, 7 and 14, day 19",119.2 mm^3
same,Median Tumour Volume,"[12]; days 0, 7 and 14, day 21",150.4 mm^3
same,Median Tumour Volume,"[12]; days 0, 7 and 14, day 24",137.2 mm^3
same,Median Tumour Volume,"[12]; days 0, 7 and 14, day 26",146.9 mm^3
same,Median Tumour Volume,"[12]; days 0, 7 and 14, day 28",197.6 mm^3
same,Median Tumour Volume,"[12]; days 0, 7 and 14, day 34",388.1 mm^3
same,Median Tumour Volume,"[12]; days 0, 7 and 14, day 41",727.7 mm^3
same,Median Tumour Volume,"[12]; days 0, 7 and 14, day 45","1,111.6 mm^3"
same,Median Tumour Volume,"[12]; days 0, 7 and 14, day 48","1,503.6 mm^3"
same,IC50,[13],1.05 nM
same,Median Tumour Volume,"[14]; days 0, 7 and 14, day 0",185 mm^3
same,Median Tumour Volume,"[14]; days 0, 7 and 14, day 2",173.7 mm^3
same,Median Tumour Volume,"[14]; days 0, 7 and 14, day 4",103.2 mm^3
same,Median Tumour Volume,"[14]; days 0, 7 and 14, day 7",73.8 mm^3
same,Median Tumour Volume,"[14]; days 0, 7 and 14, day 9",68.5 mm^3
same,Median Tumour Volume,"[14]; days 0, 7 and 14, day 11",51.2 mm^3
same,Median Tumour Volume,"[14]; days 0, 7 and 14, day 14",37.5 mm^3
same,Median Tumour Volume,"[14]; days 0, 7 and 14, day 16",40.8 mm^3
same,Median Tumour Volume,"[14]; days 0, 7 and 14, day 18",35.3 mm^3
same,Median Tumour Volume,"[14]; days 0, 7 and 14, day 21",43.5 mm^3
same,Median Tumour Volume,"[14]; days 0, 7 and 14, day 23",55.5 mm^3
same,Median Tumour Volume,"[14]; days 0, 7 and 14, day 25",68.5 mm^3
same,Median Tumour Volume,"[14]; days 0, 7 and 14, day 28",233.4 mm^3
same,Median Tumour Volume,"[14]; days 0, 7 and 14, day 30",547.3 mm^3
same,Median Tumour Volume,"[14]; days 0, 7 and 14, day 32","1,044 mm^3"
same,Median Tumour Volume,"[14]; days 0, 7 and 14, day 35","1,565 mm^3"
same,Median Tumour Volume,"[14]; days 0, 7 and 14, day 37","1,610.4 mm^3"
